Test results reported in patent US20140206633A1, “PROCESS FOR THE PREPARATION OF ISOXAZOLINE DERIVATIVES” (SYNGENTA CROP PROTECTION LLC, priority 2010, published 2014).

Compound | melting point
C=CC1C[N+]2(Cc3c(F)c(F)c(F)c(F)c3F)CCC1C[C@H]2[C@H](O)c1ccnc2ccc(OC)cc12.[Br-] (some centres unmarked) | 162 to 165 °C (dec.)
C=CC1C[N+]2(Cc3c4ccccc4cc4ccccc34)CCC1C[C@H]2[C@H](O)c1ccnc2ccc(OC)cc12.[Cl-] (some centres unmarked) | 150 to 152 °C (dec.)
